Series [1] deals with phosphorylated p65 (Ser536) in LPS-stimulated THP-1 cells. Briefly: Western blot, p65 phosphorylation. In kind it is cell-based, human. The method, then:
(§1) THP-1 cells were maintained in RPMI 1640 medium supplemented with 10% complement-inactivated FBS and 1% penicillin/streptomycin (complete culture medium) at 37° C. with 5% CO2 supplemented. Cell concentrations were adjusted to desired concentrations for each experiment by centrifugation at 500×g for 5 min and resuspended in complete culture medium with 100 nM of PMA. Cell concentration was adjusted to 5×10^5 cells/ml for all assays and 2.5×10^5 cells/ml were used for NF-κB nuclear translocation assay. Cells were seeded onto 96-, 24-, or 12-well plates and incubated for 48 to 72 h to allow for differentiation. Cells were washed with serum-free RPMI 1640 medium before each experiment to remove the undifferentiated cells.
Differentiated THP-1 cells were pretreated with various concentrations of cis-gnetin H, trans-gnetin H, or 10 μM of Bay 11-7082 for 1 h and stimulated with 1 μg/ml of LPS for 15 min. Cells were lysed with radio-immunoprecipitation assay (RIPA; 1% Triton X-100, 0.5% Sodium deoxycholate, 0.1% sodium dodecyl sulfate, 150 mM sodium chloride, and 50 mM Tris-chloride) lysis buffer that contained protease and phosphatase inhibitor cocktail. Cell lysates were then tested for protein concentration using a BCA protein assay, and diluted with RIPA lysis buffer to normalize protein concentration in all samples. […]
(A western blot detects proteins with antibodies after separation by electrophoresis.)

For series [2], the system named is HMEC cells (human mammary epithelial cells). Briefly: Inhibition of cell proliferation, AlamarBlue fluorescent assay, HMEC normal control. It is filed as cell-based. Particulars: for inhibitory effects on normal HMEC cells: 10 uM, up to 48 hours; for IC50: Homo sapiens, HMEC, 48 hours, AlamarBlue, normal cell line. The method, then:
The cancer cell lines used in this study included human lung carcinoma (A549), human breast carcinoma (BT20 and MCF-7) and human osteosarcoma (U2OS), with the normal cell lines human peripheral lung epithelial cells (HPL1A) and human mammary epithelial cells (HMEC) serving as controls. A549, BT20, MCF-7, U2OS and HMEC cells were purchased from American Type Culture Collection (ATCC, USA), and HPL1A cells were obtained from Nagoya University, Japan. A549 and BT20 were grown in RPMI-1640 (Sigma), MCF-7 was grown in Dulbecco's Modified Eagle Medium (DMEM) (Sigma) supplemented with 0.01 mg/ml human recombinant insulin (Sigma), U2OS and HMEC were grown in McCoy's 5A (ATCC), and HPL1A was grown in DMEM/F-12K (Sigma). The mediums were supplemented with 10% Fetal Bovine Serum (FBS) (Gibco), 1% penicillin and streptomycin and incubated in a humidified atmosphere with 5% CO2 at 37° C.
The proliferation inhibition potential of cis- and trans-gnetin H was determined by a fluorescence dye staining method. Cells were seeded in a 96-well tissue culture-treated plate (BD Falcon) at a density of 4000 cells/well, and treated with cis- or trans-gnetin H for 48 hours. AlamarBlue dye (Invitrogen) was used to assess the viability of cells according to the manufacturer's instructions; the fluorescent intensity was read on a SpectraMax M2e microplate reader (Molecular Devices Inc.).
For the determination of IC50 values, cells were treated with a serial dilution (320 μM, 100 μM, 32 μM, 10 μM, 3.2 μM, and 0.32 μM) of cis- or trans-gnetin H for 48 hours. Cell viability was determined with AlamarBlue dye (Invitrogen) and the IC50 values were calculated using non-linear regression analysis.

Series [3] deals with PMA-differentiated THP-1 macrophages. Briefly: Cell viability Alamar Blue assay, PMA-differentiated THP-1. In kind it is cell-based, human. Particulars: for viability of PMA-differentiated THP-1 cells: 3, 6, 13, 25, 50, 100 μM, 24 h treatment. On the procedure:
as §1
Differentiated THP-1 cells were treated with various concentrations of cis- and trans-gnetin H and 1 μM of dexamethasone for 24 h. Following treatment, the cell supernatants were replaced with culture medium containing 1× Alamar Blue reagent and incubated for an additional 20-24 h. Cell viability was assessed by measuring Relative Fluorescent Units (RFU) on the SpectraMax M2e microplate reader (Molecular Devices Inc., Sunnyvale, Calif., USA) at Ex 560 nm and Em 590 nm. The results were expressed as a percentage, relative to untreated control cells (FIG. 9). Untreated and LPS-treated cells were tested for the effect of DMSO as vehicle control.
Differentiated THP-1 cells were pretreated with various concentrations of cis-gnetin H, trans-gnetin H, or 1 μM of dexamethasone for 1 h and stimulated with 20 ng/ml of LPS for 4 h. Dexamethasone is a synthetic glucocorticoid that suppresses cytokine response and was used as a positive control (Abraham et al., 2006, J. Exp. Med., 203:1883-9; Steer et al., J. Biol. Chem., 2000, 275(24):18432-40). Supernatants were collected for human cytokine ELISAs and the manufacturer's protocol was followed to assess the cytokine response. Cells remaining after the supernatant collection were tested for relative viability by Alamar Blue cytotoxicity assay as described earlier.

Series [4] deals with A549 cells. Nature of the series: Multi-parameter cytotoxicity measurement, Arrayscan VTI HCS Reader. It is filed as cell-based, human. The settings on record: for mitochondria transmembrane potential: A549, after both 24 hrs and 48 hrs. On the procedure:
A549 cells were seeded in a 96-well plate (BD Falcon) at a density of 4000 cells/well, and then treated with different concentrations ([…] 100 μM) of cis- or trans-gnetin H for 24 hours and 48 hours. Non-treated cells and cells treated with 100 μM Valinomycin were used as negative and positive controls. After treatment, the cells were stained with a mixture of fluorescent dyes including Hoechst 33342 (blue florescence), cell permeability dye (green florescence) and mitochondrial membrane potential dye (red florescence) (Thermo Scientific). The three dyes allow changes in nuclear morphology, cell membrane permeability and mitochondrial trans-membrane potential to be determined. The cells were fixed and washed, and images for each fluoroprobe were acquired at different channels using suitable filters with a 20× objective and analyzed on the Arrayscan VTI HCS Reader (Thermo Scientific). The Cell Health Profiling BioApplication software (Thermo Scientific) was used for image acquisition and analysis. For each well, at least 400 cells were automatically acquired and analyzed. The average fluorescent intensity was used to quantify changes in each channel and each experiment was performed in triplicate.

Take `Oc1ccc(/C=C\c2c3c(cc4c2[C@H](c2cc(O)cc(O)c2)[C@@H](c2ccc(O)cc2)O4)O[C@H](c2ccc(O)cc2)[C@H]3c2cc(O)cc(O)c2)cc1` [cis-gnetin H]: the p65 phosphorylation result in series [1] (only at the highest concentration, 50 μM) was “significantly inhibited”. For the same compound, in series [2], the “inhibitory effects on normal HMEC cells” value is “no such obvious inhibitory effects” and inhibition was half-maximal at 26.7 µM (IC50). In addition, in series [3], the “viability of PMA-differentiated THP-1 cells” value was “Neither cis- nor trans-gnetin H affected the viability of the cells”. Moreover, in series [3] (pretreatment 12.5, 25, 50 μM and LPS), the “cell viability with LPS” value is “no effect on cell viability”. For the same compound, in series [4] (A549, 24 hrs treatment), the nuclear size result was “no alternation in nuclear size”. Also, the nuclear size result in series [4] (A549, 48 hrs treatment) was “reduction in nuclear size”. Moreover, the mitochondria transmembrane potential result in series [4] is “reduction in the mitochondria transmembrane potential”.
`Oc1ccc(/C=C/c2c3c(cc4c2[C@H](c2cc(O)cc(O)c2)[C@@H](c2ccc(O)cc2)O4)O[C@H](c2ccc(O)cc2)[C@H]3c2cc(O)cc(O)c2)cc1` [trans-gnetin H]: the p65 phosphorylation entry in series [1] (both 15 and 30 μM) was “significantly inhibited”. In addition, the “inhibitory effects on normal HMEC cells” value in series [2] was “no such obvious inhibitory effects”. In addition, the IC50 (usually the midpoint of a concentration-inhibition curve) in series [2] amounted to 25.9 µM. For the same compound, in series [3], the “viability of PMA-differentiated THP-1 cells” value was “Neither cis- nor trans-gnetin H affected the viability of the cells”. For the same compound, in series [3] (pretreated at 50 μM and LPS), the “cell viability with LPS relative to untreated control” value is reported as “decreased viability”. Further, the nuclear size entry is given as “no alternation in nuclear size” in series [4] (A549, 24 hrs treatment) and “reduction in nuclear size” in series [4] (A549, 48 hrs treatment). In series [4], the mitochondria transmembrane potential result was “reduction in the mitochondria transmembrane potential”.

Values taken from patent US11007169B2, “Cis-gnetin H and trans-gnetin H as therapeutic agents” (MIDDLE TENNESSEE STATE UNIVERSITY, priority 2014, dated 2021).
